# According to US8802895B2, “Amide derivatives of benzene-sulfonanilide, pharmaceutical composition thereof and method for cancer treatment using the same” (Cleveland State University, priority 2010, dated 2014):
# Assays:
# Format in all cases: cell-based
# CCRF-CEM = experiment: NCIDTP 60 cancer cell lines screening, Leukemia panel
# K-562 = experiment: as above
# RPMI-8226 = experiment: as above
# NCI-H226 = experiment: NCIDTP 60 cancer cell lines screening, Non-Small Cell Lung Cancer panel
# NCI-H460 = experiment: as above
# HCT-116 = experiment: NCIDTP 60 cancer cell lines screening, Colon Cancer panel
# KM12 = experiment: as above
# SW-620 = experiment: as above
# MDA-MB-435 = experiment: NCIDTP 60 cancer cell lines screening, Melanoma panel
# UACC-62 = experiment: as above
# OVCAR-3 = experiment: NCIDTP 60 cancer cell lines screening, Ovarian Cancer panel
# OVCAR-8 = experiment: as above
# A498 = experiment: NCIDTP 60 cancer cell lines screening, Renal Cancer panel
# CAKI-1 = experiment: as above
# UO-31 = experiment: as above
# MCF7 = experiment: NCIDTP 60 cancer cell lines screening, Breast Cancer panel
# T-47D = experiment: as above
compound,measurement,setting,value
"Cc1ccc(C)c(COc2cc(NC(=O)c3ccc4c(c3)OCO4)ccc2N(C)S(C)(=O)=O)c1 [Compound #10, Benzo[1,3]dioxole-5-carboxylic acid [3-(2,5-dimethyl-benzyloxy)-4-(methanesulfonyl-methyl-amino)-phenyl]-amide]",TGI,CCRF-CEM,>1.00E−4 Molar
same,GI50,CCRF-CEM; Homo sapiens,0.0485 µM
same,CC50,"CCRF-CEM; Homo sapiens, read-out: LC50",> 100 µM
same,Percent Growth,CCRF-CEM; Log10 Concentration −4.0 Molar,16%
same,Percent Growth,CCRF-CEM; Log10 Concentration −5.0 Molar,14%
same,Percent Growth,CCRF-CEM; Log10 Concentration −6.0 Molar,13%
same,Percent Growth,CCRF-CEM; Log10 Concentration −7.0 Molar,31%
same,Percent Growth,CCRF-CEM; Log10 Concentration −8.0 Molar,92%
same,CC50,"K-562; Homo sapiens, K562, read-out: LC50",> 100 µM
same,GI50,"K-562; Homo sapiens, K562, K-562",0.0403 µM
same,TGI,K-562; K-562,>1.00E−4 Molar
same,Percent Growth,"K-562; K-562, Log10 Concentration −4.0 Molar",9%
same,Percent Growth,"K-562; K-562, Log10 Concentration −5.0 Molar",9%
same,Percent Growth,"K-562; K-562, Log10 Concentration −6.0 Molar",11%
same,Percent Growth,"K-562; K-562, Log10 Concentration −7.0 Molar",20%
same,Percent Growth,"K-562; K-562, Log10 Concentration −8.0 Molar",96%
same,GI50,"RPMI-8226; Homo sapiens, RPMI-8226",0.29 µM
same,CC50,"RPMI-8226; Homo sapiens, RPMI-8226, read-out: LC50",> 100 µM
same,Percent Growth,"RPMI-8226; RPMI-8226, Log10 Concentration −4.0 Molar",6%
same,Percent Growth,"RPMI-8226; RPMI-8226, Log10 Concentration −5.0 Molar",−2%
same,Percent Growth,"RPMI-8226; RPMI-8226, Log10 Concentration −6.0 Molar",14%
same,Percent Growth,"RPMI-8226; RPMI-8226, Log10 Concentration −7.0 Molar",81%
same,Percent Growth,"RPMI-8226; RPMI-8226, Log10 Concentration −8.0 Molar",93%
same,GI50,"NCI-H226; Homo sapiens, NCI-H226",0.686 µM
same,CC50,"NCI-H226; Homo sapiens, NCI-H226, read-out: LC50",> 100 µM
same,TGI,NCI-H226; NCI-H226,>1.00E−4 Molar
same,Percent Growth,"NCI-H226; NCI-H226, Log10 Concentration −4.0 Molar",16%
same,Percent Growth,"NCI-H226; NCI-H226, Log10 Concentration −5.0 Molar",20%
same,Percent Growth,"NCI-H226; NCI-H226, Log10 Concentration −6.0 Molar",42%
same,Percent Growth,"NCI-H226; NCI-H226, Log10 Concentration −7.0 Molar",93%
same,Percent Growth,"NCI-H226; NCI-H226, Log10 Concentration −8.0 Molar",87%
same,GI50,"NCI-H460; Homo sapiens, NCI-H460",0.184 µM
same,CC50,"NCI-H460; Homo sapiens, NCI-H460, read-out: LC50",> 100 µM
same,TGI,NCI-H460; NCI-H460,7.44E−7 Molar
same,Percent Growth,"NCI-H460; NCI-H460, Log10 Concentration −4.0 Molar",−24%
same,Percent Growth,"NCI-H460; NCI-H460, Log10 Concentration −5.0 Molar",−10%
same,Percent Growth,"NCI-H460; NCI-H460, Log10 Concentration −6.0 Molar",−11%
same,Percent Growth,"NCI-H460; NCI-H460, Log10 Concentration −7.0 Molar",72%
same,Percent Growth,"NCI-H460; NCI-H460, Log10 Concentration −8.0 Molar",95%
same,TGI,HCT-116; HCT-116,1.02E−6 Molar
same,Percent Growth,"HCT-116; HCT-116, Log10 Concentration −4.0 Molar",−47%
same,Percent Growth,"HCT-116; HCT-116, Log10 Concentration −5.0 Molar",−47%
same,Percent Growth,"HCT-116; HCT-116, Log10 Concentration −7.0 Molar",45%
same,Percent Growth,"HCT-116; HCT-116, Log10 Concentration −8.0 Molar",89%
same,GI50,"HCT-116; Homo sapiens, HCT-116",0.0753 µM
same,CC50,"HCT-116; Homo sapiens, HCT-116, read-out: LC50",> 100 µM
same,GI50,"KM12; Homo sapiens, KM12",0.0855 µM
same,CC50,"KM12; Homo sapiens, KM12, read-out: LC50",> 100 µM
same,TGI,KM12; KM12,1.13E−6 Molar
same,Percent Growth,"KM12; KM12, Log10 Concentration −4.0 Molar",−29%
same,Percent Growth,"KM12; KM12, Log10 Concentration −5.0 Molar",−19%
same,Percent Growth,"KM12; KM12, Log10 Concentration −6.0 Molar",1%
same,Percent Growth,"KM12; KM12, Log10 Concentration −7.0 Molar",47%
same,Percent Growth,"KM12; KM12, Log10 Concentration −8.0 Molar",93%
same,GI50,"SW-620; Homo sapiens, SW-620",0.112 µM
same,CC50,"SW-620; Homo sapiens, SW-620, read-out: LC50",> 100 µM
same,TGI,SW-620; SW-620,>1.00E−4 Molar
same,Percent Growth,"SW-620; SW-620, Log10 Concentration −4.0 Molar",16%
same,Percent Growth,"SW-620; SW-620, Log10 Concentration −5.0 Molar",21%
same,Percent Growth,"SW-620; SW-620, Log10 Concentration −6.0 Molar",19%
same,Percent Growth,"SW-620; SW-620, Log10 Concentration −7.0 Molar",52%
same,Percent Growth,"SW-620; SW-620, Log10 Concentration −8.0 Molar",92%
same,GI50,"MDA-MB-435; Homo sapiens, MDA-MB-435",0.0285 µM
same,CC50,"MDA-MB-435; Homo sapiens, MDA-MB-435, read-out: LC50",> 100 µM
same,TGI,MDA-MB-435; MDA-MB-435,9.14E−8 Molar
same,Percent Growth,"MDA-MB-435; MDA-MB-435, Log10 Concentration −4.0 Molar",−17%
same,Percent Growth,"MDA-MB-435; MDA-MB-435, Log10 Concentration −5.0 Molar",−28%
same,Percent Growth,"MDA-MB-435; MDA-MB-435, Log10 Concentration −6.0 Molar",−30%
same,Percent Growth,"MDA-MB-435; MDA-MB-435, Log10 Concentration −7.0 Molar",−4%
same,Percent Growth,"MDA-MB-435; MDA-MB-435, Log10 Concentration −8.0 Molar",95%
same,GI50,"UACC-62; Homo sapiens, UACC-62",0.414 µM
same,CC50,"UACC-62; Homo sapiens, UACC-62, read-out: LC50",> 100 µM
same,TGI,UACC-62; UACC-62,>1.00E−4 Molar
same,Percent Growth,"UACC-62; UACC-62, Log10 Concentration −4.0 Molar",14%
same,Percent Growth,"UACC-62; UACC-62, Log10 Concentration −5.0 Molar",15%
same,Percent Growth,"UACC-62; UACC-62, Log10 Concentration −6.0 Molar",37%
same,Percent Growth,"UACC-62; UACC-62, Log10 Concentration −7.0 Molar",71%
same,Percent Growth,"UACC-62; UACC-62, Log10 Concentration −8.0 Molar",94%
same,TGI,OVCAR-3,1.66E−7 Molar
same,GI50,OVCAR-3; Homo sapiens,0.0396 µM
same,Percent Growth,OVCAR-3; Log10 Concentration −4.0 Molar,−32%
same,Percent Growth,OVCAR-3; Log10 Concentration −5.0 Molar,−44%
same,Percent Growth,OVCAR-3; Log10 Concentration −6.0 Molar,−67%
same,Percent Growth,OVCAR-3; Log10 Concentration −7.0 Molar,19%
same,Percent Growth,OVCAR-3; Log10 Concentration −8.0 Molar,96%
same,GI50,"OVCAR-8; Homo sapiens, OVCAR-8",0.265 µM
same,CC50,"OVCAR-8; Homo sapiens, OVCAR-8, read-out: LC50",> 100 µM
same,TGI,OVCAR-8; OVCAR-8,>1.00E−4 Molar
same,Percent Growth,"OVCAR-8; OVCAR-8, Log10 Concentration −4.0 Molar",6%
same,Percent Growth,"OVCAR-8; OVCAR-8, Log10 Concentration −5.0 Molar",8%
same,Percent Growth,"OVCAR-8; OVCAR-8, Log10 Concentration −6.0 Molar",10%
same,Percent Growth,"OVCAR-8; OVCAR-8, Log10 Concentration −7.0 Molar",80%
same,Percent Growth,"OVCAR-8; OVCAR-8, Log10 Concentration −8.0 Molar",94%
same,TGI,A498; A498,8.53E−7 Molar
same,Percent Growth,"A498; A498, Log10 Concentration −4.0 Molar",−5%
same,Percent Growth,"A498; A498, Log10 Concentration −5.0 Molar",−7%
same,Percent Growth,"A498; A498, Log10 Concentration −6.0 Molar",−4%
same,Percent Growth,"A498; A498, Log10 Concentration −7.0 Molar",55%
same,Percent Growth,"A498; A498, Log10 Concentration −8.0 Molar",86%
same,GI50,"A498; Homo sapiens, A498",0.122 µM
same,CC50,"A498; Homo sapiens, A498, read-out: LC50",> 100 µM
same,TGI,CAKI-1; CAKI-1,>1.00E−4 Molar
same,Percent Growth,"CAKI-1; CAKI-1, Log10 Concentration −4.0 Molar",5%
same,Percent Growth,"CAKI-1; CAKI-1, Log10 Concentration −5.0 Molar",2%
same,Percent Growth,"CAKI-1; CAKI-1, Log10 Concentration −6.0 Molar",16%
same,Percent Growth,"CAKI-1; CAKI-1, Log10 Concentration −7.0 Molar",54%
same,Percent Growth,"CAKI-1; CAKI-1, Log10 Concentration −8.0 Molar",100%
same,GI50,"CAKI-1; Homo sapiens, CAKI-1",0.126 µM
same,CC50,"CAKI-1; Homo sapiens, CAKI-1, read-out: LC50",> 100 µM
same,GI50,"UO-31; Homo sapiens, UO-31",0.395 µM
same,CC50,"UO-31; Homo sapiens, UO-31, read-out: LC50",> 100 µM
same,TGI,UO-31; UO-31,>1.00E−4 Molar
same,Percent Growth,"UO-31; UO-31, Log10 Concentration −4.0 Molar",14%
same,Percent Growth,"UO-31; UO-31, Log10 Concentration −5.0 Molar",12%
same,Percent Growth,"UO-31; UO-31, Log10 Concentration −6.0 Molar",35%
same,Percent Growth,"UO-31; UO-31, Log10 Concentration −7.0 Molar",73%
same,Percent Growth,"UO-31; UO-31, Log10 Concentration −8.0 Molar",78%
same,GI50,"MCF7; Homo sapiens, MCF7",0.12 µM
same,CC50,"MCF7; Homo sapiens, MCF7, read-out: LC50",> 100 µM
same,TGI,MCF7; MCF7,>1.00E−4 Molar
same,Percent Growth,"MCF7; MCF7, Log10 Concentration −4.0 Molar",7%
same,Percent Growth,"MCF7; MCF7, Log10 Concentration −5.0 Molar",10%
same,Percent Growth,"MCF7; MCF7, Log10 Concentration −6.0 Molar",16%
same,Percent Growth,"MCF7; MCF7, Log10 Concentration −7.0 Molar",53%
same,Percent Growth,"MCF7; MCF7, Log10 Concentration −8.0 Molar",92%
same,CC50,"T-47D; Homo sapiens, T47D, read-out: LC50",> 100 µM
same,GI50,"T-47D; Homo sapiens, T47D, T-47D",0.682 µM
same,TGI,T-47D; T-47D,>1.00E−4 Molar
same,Percent Growth,"T-47D; T-47D, Log10 Concentration −4.0 Molar",27%
same,Percent Growth,"T-47D; T-47D, Log10 Concentration −5.0 Molar",29%
same,Percent Growth,"T-47D; T-47D, Log10 Concentration −6.0 Molar",45%
same,Percent Growth,"T-47D; T-47D, Log10 Concentration −7.0 Molar",77%
same,Percent Growth,"T-47D; T-47D, Log10 Concentration −8.0 Molar",89%
